Values joined by “and” are separate entries in the source; they are usually repeats but may differ in a detail not shown here. Equal values may be shown once.
Experiments:
Bcl-2 = assay: Western blotting, semiquantitative analysis of Bcl-2 protein bands; assay type: cell-based; conditions: tumor cells; for concentration of the protein bands (semiquantitative, normalized), Bcl-2: control = 1
Experimental: (§1) The interest protein was detected by the corresponding antibody. The expression of the interest protein in the cells was detected by horseradish peroxidase-labeled secondary antibodies in combination with ECL coloration method. […] The concentration of the protein bands in the Western images were carried out semiquantitative analysis and normalization treatment with KODAK Gel Logic 1500 imaging system software.

Mcl-1 = assay: Western blotting, semiquantitative analysis of Mcl-1 protein bands; assay type: cell-based; conditions: tumor cells; for concentration of the protein bands (semiquantitative, normalized), Mcl-1: control = 1
Experimental: as §1

His-tagged Mcl-1 protein = His-tagged Mcl-1 protein (Homo sapiens, UniProt Q07820); assay: ELISA assay, competitive binding to Mcl-1 protein (biotin-Bim/streptavidin plate); conditions: 20 nM His-tagged Mcl-1, method calculates average IC50, read-out: Mcl-1 binding constants
Experimental: (§2) The present inventors used fluorescence polarization assay to detect the bonding force between the protein and the compounds in a previous study (PCT/CN2010/075521). […] ELISA assay was used to detect the bonding force between the compounds and the protein in this application.
(§3) Biotinylated Bim peptide was diluted to 0.09 μg/mL in SuperBlock blocking buffer in PBS and incubated for 1.5 h in 96-well microtiter plates already coated with streptavidin to allow the formation of the complex between Biotin-Bim and streptavidin. All incubations were performed at room temperature unless otherwise noted. Each inhibitor was first dissolved in pure DMSO to obtain a 10 mM stock solution. For each tested inhibitor, different concentrations of the inhibitor were incubated with 20 nM His-tagged Mcl-1 protein in PBS for 1 h with a final DMSO concentration of 4%. The plates were washed three times with PBS containing 0.05% Tween-20. The inhibitor and protein mixture (100 μL) were transferred to the plate containing the biotin-Bim/streptavidin complex and incubated for 2 h. The plate was then washed as before and mouse anti-His antibody that conjugated with horseradish peroxidase was added into the wells and incubated for 1 h. The plate was then washed with PBS containing 0.05% Tween-20. Finally, TMB was added to each well; the enzymatic reaction was stopped after 30 min by addition of H2SO4 (100 μL, 2M). Absorbances were measured with a TECAN GENios (Swiss, TECAN) microplate reader using a wavelength of 450 nm. Three independent experiments were performed with each inhibitor to calculate average IC50 value and standard deviation (SD).
(§4) The BH3 analogous degrees of other 11 compounds were detected by using the experimental method as described above. The protein binding constant (binding constant in table 1) between them and Bcl-2 and Mcl-1 proteins were also on nM grade.

MCF-7 cells = assay: Cytotoxicity by MTT, cells without plasmid transfection; assay type: cell-based; conditions: Homo sapiens, MCF7; MCF-7, MTT, 48 hours; read-out: IC50 value in untransfected cells
Experimental: (§5) 3 μg of BAX/BAK interfering plasmid was transfected into MCF-7 cells by using calcium phosphate coprecipitation method, 24 hours later, the cells were collected. The expressions after the BAX and BAK proteins interfered with RNA was detected by Western, and the cell groups without plasmid transfection were treated similarly and were set as the control group. The transfected cells were inoculated in a 96-well plate (1×10^5 cells/well), the control experiment of the cell group without plasmid transfection was carried out in parallel. The compound 1 to be detected was added thereinto according to the concentration gradient designed before the experiment. 48 hours later, the cellular vitality was detected by MTT. The experimental results were shown in FIG. 9, Gossypol as nonspecific BH3 analogue was treated in parallel.
(§6) Other 24 compounds were also detected by the same experimental method as described above, the differences of IC50 values between the transfected cells and the without plasmid transfection cells were compared.

[1] = system: BAX shift towards the chondriosome; assay: Co-localization between Bax protein and chondriosome, Bax-YFP in MCF-7 cells; assay type: cell-based; conditions: for Doses (concentration at which the compound drove the BAX to shift towards the chondriosome): Bax-YFP/Mito Tracker Red; for Time (time period after which BAX shifted towards the chondriosome): at the concentration given
Experimental: 5 μg of Bax-YFP plasmid was transfected into MCF-7 cells by using calcium phosphate coprecipitation method, 24 hours later, the cells were inoculated in a 6-well plate (0.2×10^6 cells/well), and 10 μM of the compound 1 to be detected was added thereinto. 6 hours later, the cells were washed with PBS and hatched away from light with 50 nM Mito Tracker Red CMXRos (chondriosome specific probes; red) for 10 minutes. Then the cells were washed with PBS for three times, and the fluorescent image was scanned with Radiance2000 laser confocal microscopy (Bio-Rad, USA). Meanwhile, dual channel scanning was carried out, one channel was used to scan the green fluorescence of Bax-YFP, and the other channel was used to scan the red fluorescence of the CMXRos probe for indicating the chondriosome. […] When the Bax protein was localized on the chondriosome, the green and red fluorescence was superimposed into orange, as shown in FIG. 7.
Other 24 compounds were detected by the same experimental method as described above. […] Wherein the concentration and time meant that the detected compound simulated the BH3-only protein and driven the BAX to shift towards the chondriosome at the concentration for the time period.

[2] = biological target: T1, interaction between Bcl-2 and Bax (Homo sapiens, UniProt P10415); assay: Intracellular FRET, Bcl-2-CFP/Bax-YFP in Hela cells; assay type: cell-based; conditions: for Time (time period after which the interaction between Bcl-2 and Bax was interfered): at the concentration given
T1 construct: expressed in transfected cells; host or cells: Hela cells
Experimental: 2 μg of Bcl-2-CFP and Bax-YFP plasmids were transfected separately or simultaneously into Hela cells by using calcium phosphate coprecipitation method, 24 hours later, the cells were inoculated in a 6-well plate (2×10^5 cells/well), and the compound 1 to be detected dissolved in DMSO was added there into until the final concentration (2, 5, 10 and 15 μM) was achieved. 24 hours later (please refer to FIG. 5); the cells were washed with PBS for three times. The fluorescence value was detected by GENIOS fluorescence enzyme-labelled meter (TECAN, Swiss). In time-dependent experiment, the transfected cells were inoculated in a 6-well plate, after that, 40 μM of the compound was added thereinto. 3, 6 and 24 hours later (FIG. 6), the fluorescence intensities were detected by plate reader. As for the cell group in which only Bcl-2-CFP plasmid was transfected, the values at 475 nm emission wave length and 433 nm excitation wave length were recorded. As for the cell group in which only Bax-YFP plasmid was transfected, the values at 527 nm emission wave length and 505 nm excitation wave length were recorded. As for the cell group in which Bcl-2-CFP and Bax-YFP plasmids were co-transfected, the values at 527 nm and 475 emission wave lengths and 433 nm excitation wave length were recorded. The ratio of fluorescence intensity at 527 nm and 475 nm emission wave lengths was FRET. The FRET for the control group in which the plasmid was solely transfected was set as 1.0. […] In the cotransfected cells, the FRET increased up to 2.0 due to the interaction of Bcl-2 protein and Bax protein, and that the interference to the interaction between the two proteins increased and FRET decreased with the increase of the drug concentration and time. The cellular vitality was detected by MTT method. When the concentration of the compound reached 1 μM, the interaction between Bcl-2 and Bax can be interfered after 2 hours, and the results appeared concentration-time dependent trend.
Wherein the concentration and time meant that the detected compound interfered with the interaction between Bcl-2 and Bax at the concentration for the time period.

Bcl-2 protein = Bcl-2 protein (Homo sapiens, UniProt P10415); assay: ELISA assay, competitive binding to Bcl-2 protein (biotin-Bim/streptavidin plate); conditions: method calculates average IC50, read-out: Bcl-2 binding constants
Experimental: as §2, §3, §4

[3] = system: MCF-7 cells transfected with BAX/BAK interfering plasmid; assay: Cytotoxicity by MTT, cells transfected with BAX/BAK interfering plasmid; assay type: cell-based; conditions: for IC50: Homo sapiens, MCF7, MCF-7 with BAX/BAK interfering plasmid, MTT, 48 hours
Experimental: as §5, §6

Sequence of His-tagged Mcl-1 protein (Q07820 whole entry): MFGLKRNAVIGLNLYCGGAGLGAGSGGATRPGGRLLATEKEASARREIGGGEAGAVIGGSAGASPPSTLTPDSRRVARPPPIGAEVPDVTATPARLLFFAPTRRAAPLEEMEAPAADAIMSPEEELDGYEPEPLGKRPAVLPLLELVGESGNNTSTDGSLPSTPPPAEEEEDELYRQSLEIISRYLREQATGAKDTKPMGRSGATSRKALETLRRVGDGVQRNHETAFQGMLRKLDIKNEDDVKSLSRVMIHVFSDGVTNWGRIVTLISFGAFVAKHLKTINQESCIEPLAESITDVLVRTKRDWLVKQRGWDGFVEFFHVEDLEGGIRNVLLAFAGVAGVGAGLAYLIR
T1 sequence (P10415 whole entry): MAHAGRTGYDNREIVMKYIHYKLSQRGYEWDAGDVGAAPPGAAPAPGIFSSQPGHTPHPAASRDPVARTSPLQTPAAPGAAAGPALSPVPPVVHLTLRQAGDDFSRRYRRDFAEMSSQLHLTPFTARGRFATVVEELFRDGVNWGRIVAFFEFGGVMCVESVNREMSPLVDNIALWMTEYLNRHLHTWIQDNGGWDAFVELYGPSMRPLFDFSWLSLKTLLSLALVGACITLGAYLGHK
Sequence of Bcl-2 protein (P10415 whole entry, species assumed): as the sequence (P10415 whole entry) above

Row | SMILES | concentration of the protein bands (semiquantitative, normalized), Bcl-2 (Bcl-2; 6 h) | concentration of the protein bands (semiquantitative, normalized), Bcl-2 (Bcl-2; 12 h) | concentration of the protein bands (semiquantitative, normalized), Bcl-2 (Bcl-2; 18 h) | concentration of the protein bands (semiquantitative, normalized), Bcl-2 (Bcl-2; 24 h) | inhibition against Bcl-2 (in words) (Bcl-2; Western blotting) | concentration of the protein bands (semiquantitative, normalized), Mcl-1 (Mcl-1; 2 h) | concentration of the protein bands (semiquantitative, normalized), Mcl-1 (Mcl-1; 6 h) | inhibition against Mcl-1 (in words) (Mcl-1; Western blotting) | IC50 (His-tagged Mcl-1 protein) [nM] | IC50 (MCF-7 cells) [µM] | Doses (concentration at which the compound drove the BAX to shift towards the chondriosome) [1] [µM] | Time (time period after which BAX shifted towards the chondriosome) [1] [h] | Doses (concentration at which the compound interfered with the interaction between Bcl-2 and Bax) [2] | Time (time period after which the interaction between Bcl-2 and Bax was interfered) [2] [h] | IC50 (Bcl-2 protein) [nM] | IC50 [3] [µM] | dependence of cytotoxicity on BAX/BAK ([3]; comparison of transfected and untransfected MCF-7 cells) | melting point [°C]
1 | CCCCNC1=C2C(=NC1=O)c1cccc3cccc2c13 [Compound 1, 9-n-Butylamino-8H-acenaphtho[1,2-b]pyrrol-8-one] | 0.99 | 0.99 | 0.58 | 0.21 | had the inhibition against these two proteins | 0.79 | 0.35 | had the inhibition against these two proteins | 49 | 4 | 1.0 | 3 | 1 µM and 1.0 µM | 2 | 142 | > 50 | absolute dependence on BAX/BAK | 
2 | CCCCN(C)C1=C2C(=NC1=O)c1cccc3cccc2c13 [Compound 6, 9-(Butyl-methyl-amino)-acenaphtho[1,2-b]pyrrol-8-one] |  |  |  |  |  |  |  |  | 66 | 4 | 4.0 | 4 | 2.0 µM | 5 | 45 | > 50 |  | 245 to 246
3 | CCOc1ccc2c3c(cccc13)C1=NC(=O)C(NCCCc3ccccc3)=C12 [Compound 4, 3-Ethoxy-9-(3-phenyl-propylamino)-acenaphtho[1,2-b]pyrrol-8-one] |  |  |  |  |  |  |  |  | 95 | 5.6 | 3.0 | 4 | 1.0 µM | 5 | 35 | > 50 |  | 250 to 251
4 | CCCCNC1=C2C(=NC1=O)c1cccc3c(C(=O)c4ccccc4)ccc2c13 [Compound 5, 3-Benzoyl-9-butylamino-acenaphtho[1,2-b]pyrrol-8-one] |  |  |  |  |  |  |  |  | 125 | 6.5 | 5.0 | 5 | 2.0 µM | 6 | 65 | > 50 |  | 262 to 263

— patent US8614333B2, “Acenaphtho heterocyclic compound and application thereof” (Dalian University of Technology, priority 2010, dated 2013)
